Measurements published in US12448369B2 (Edgewise Therapeutics, Inc., priority 2023, dated 2025).

Experiments:
[1] = tested on: Porcine atria myofibrils (atrial myosin ATPase); experiment: Myofibril ATPase assay, porcine atria myofibrils; assay type: biochemical
Procedure, shortened: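 Y75 (25% inhibition) or Y125 (activation) values come from 4-parameter logistic fits of vehicle-normalized rates. Rates are linear-regression slopes of NADH absorbance at 340 nm, read kinetically over 75 min, with ADP coupled to NADH oxidation via pyruvate kinase/lactate dehydrogenase.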

[2] = tested on: Rabbit Psoas myofibrils (skeletal myosin ATPase); experiment: Myofibril ATPase assay, rabbit psoas (skeletal) myofibrils; assay type: biochemical
Procedure, shortened: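 Values are concentrations giving 75% (Y75) or 125% (Y125) of vehicle ATPase activity, from 4-parameter logistic fits of normalized rates. Rates came from linear regression of A340 over 75 min, NADH oxidation coupled to ADP via PK-LDH. Enzyme source: skeletal myofibrils from rabbit psoas, pH 7.0 pCa buffer.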

[3] = target: T1, Porcine ventricle myofibrils (ventricular myosin ATPase) (Sus scrofa, UniProt P79293); experiment: Myofibril ATPase assay, porcine ventricle myofibrils; assay type: biochemical, porcine (Yucatan minipigs)
T1 construct: Myofibrils from porcine cardiac muscle was isolated from the left ventricle of Yucatan minipigs; tissue Exemplar Genetics; host or cells: left ventricle of Yucatan minipigs, myofibrils prepared in house
Procedure, shortened: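 Left-ventricle myofibrils from Yucatan minipigs were tested with a PK/LDH-coupled system, following NADH loss at 340 nm every 1.5-2 min for 75 min. Slopes were normalized to vehicle wells and fit to a 4-parameter logistic model; values are Y75 (25% ATPase reduction) or Y125 concentrations.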

[4] = Y75 value (no ‡ mark), porcine atria myofibrils
[5] = Y75 value (no ‡ mark), rabbit psoas myofibrils
[6] = Y75 value (no ‡ mark), porcine ventricle myofibrils
[7] = porcine atria myofibrils, Y75 value (75% activity relative to no compound)
[8] = rabbit psoas myofibrils, Y75 value
[9] = porcine ventricle myofibrils, Y75 value

T1 sequence (P79293 whole entry): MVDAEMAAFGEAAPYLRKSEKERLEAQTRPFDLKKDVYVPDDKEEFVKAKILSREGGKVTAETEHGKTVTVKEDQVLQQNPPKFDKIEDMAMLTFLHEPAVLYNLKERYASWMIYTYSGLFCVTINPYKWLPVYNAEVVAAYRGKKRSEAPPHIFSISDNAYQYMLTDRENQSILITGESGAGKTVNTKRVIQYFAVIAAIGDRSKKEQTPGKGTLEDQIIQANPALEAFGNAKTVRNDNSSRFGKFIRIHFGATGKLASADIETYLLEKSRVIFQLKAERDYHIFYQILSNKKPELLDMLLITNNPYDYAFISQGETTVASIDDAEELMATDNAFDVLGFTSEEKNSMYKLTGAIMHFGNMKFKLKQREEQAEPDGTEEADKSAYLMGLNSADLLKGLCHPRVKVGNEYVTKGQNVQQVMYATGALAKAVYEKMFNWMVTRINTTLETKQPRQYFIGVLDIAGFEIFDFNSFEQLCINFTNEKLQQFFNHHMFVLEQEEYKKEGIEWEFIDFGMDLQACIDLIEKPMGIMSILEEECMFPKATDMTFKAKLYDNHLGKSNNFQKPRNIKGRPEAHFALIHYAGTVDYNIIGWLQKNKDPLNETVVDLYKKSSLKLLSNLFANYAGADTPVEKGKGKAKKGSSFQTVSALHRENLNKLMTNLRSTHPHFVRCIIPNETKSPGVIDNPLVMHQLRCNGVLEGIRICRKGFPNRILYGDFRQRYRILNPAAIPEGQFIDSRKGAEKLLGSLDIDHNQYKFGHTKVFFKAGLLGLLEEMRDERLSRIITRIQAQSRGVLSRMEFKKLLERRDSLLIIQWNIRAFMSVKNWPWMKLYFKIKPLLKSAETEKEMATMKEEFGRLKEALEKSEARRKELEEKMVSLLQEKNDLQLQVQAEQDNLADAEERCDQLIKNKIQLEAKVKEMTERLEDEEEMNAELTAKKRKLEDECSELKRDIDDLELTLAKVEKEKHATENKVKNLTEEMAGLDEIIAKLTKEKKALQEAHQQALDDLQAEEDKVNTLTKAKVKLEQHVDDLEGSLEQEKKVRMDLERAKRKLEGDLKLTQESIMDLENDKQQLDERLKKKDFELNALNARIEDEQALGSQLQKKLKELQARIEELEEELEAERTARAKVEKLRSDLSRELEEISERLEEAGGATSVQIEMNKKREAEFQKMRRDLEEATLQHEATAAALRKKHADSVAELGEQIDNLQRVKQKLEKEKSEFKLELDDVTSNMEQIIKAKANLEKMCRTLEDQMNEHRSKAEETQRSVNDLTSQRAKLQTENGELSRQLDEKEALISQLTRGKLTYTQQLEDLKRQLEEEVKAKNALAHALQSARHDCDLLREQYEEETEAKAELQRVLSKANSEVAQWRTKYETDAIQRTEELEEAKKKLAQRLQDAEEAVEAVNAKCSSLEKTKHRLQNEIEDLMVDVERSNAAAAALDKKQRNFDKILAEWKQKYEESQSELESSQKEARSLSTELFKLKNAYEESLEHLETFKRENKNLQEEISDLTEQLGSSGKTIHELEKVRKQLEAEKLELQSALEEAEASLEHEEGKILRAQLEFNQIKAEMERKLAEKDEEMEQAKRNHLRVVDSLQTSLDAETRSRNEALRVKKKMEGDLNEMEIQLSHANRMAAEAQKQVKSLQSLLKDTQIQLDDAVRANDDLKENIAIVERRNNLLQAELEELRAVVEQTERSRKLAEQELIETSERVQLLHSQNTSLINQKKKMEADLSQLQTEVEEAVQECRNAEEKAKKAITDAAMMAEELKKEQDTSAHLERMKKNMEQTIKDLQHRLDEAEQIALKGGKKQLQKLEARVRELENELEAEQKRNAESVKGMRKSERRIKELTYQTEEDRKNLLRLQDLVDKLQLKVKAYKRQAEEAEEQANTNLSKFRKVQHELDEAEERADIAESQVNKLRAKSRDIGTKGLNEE

| Atrial EC25 [1, 4] [nM] | Skeletal EC25 [2, 5] [µM] | Ventricular EC25 [3, 6] [nM] | Atrial EC25 [1, 7] [nM] | Skeletal EC25 [2, 8] [µM] | Ventricular EC25 [3, 9] [nM] | other results | SMILES |
| --- | --- | --- | --- | --- | --- | --- | --- |
| 360 | 0.17 | 450 |  |  |  |  | Cc1c(C(F)(F)C(=O)N[C@@H](C)c2ncc(C#N)cn2)c(=O)[nH]c2ccc(F)cc12 (single isomer, unassigned) [compound 2595] |
|  |  |  | 40 | 0.01 | 100 |  | Cc1c(CC(=O)N[C@@H](C)c2ccc(C#N)cc2F)c(=O)[nH]c2ccnc(C#N)c12 (single isomer, unassigned) [compound 283] |
|  |  |  | 1990 | 2.55 | 3020 |  | Cc1nccc2[nH]c(=O)c(CC(=O)N[C@H](C)c3ccc(C#N)cc3F)c(F)c12 [compound 148] |
|  |  |  | 650 | 0.13 | 3840 |  | COc1nccc2[nH]c(=O)c(CC(=O)N[C@@H](C)c3ccc(F)cc3F)cc12 [compound 434] |
|  |  |  | 180 | 0.04 | 540 |  | Cc1nccc2[nH]c(=O)c(CC(=O)N[C@@H](C)c3ccc(C#N)cc3F)c(C#N)c12 [compound 154] |
|  |  |  | 1530 | 100.00 | 30780 |  | Cc1c(CC(=O)N[C@@H](C)c2ccc(C#N)cn2)c(=O)[nH]c2ccc(C(F)(F)F)nc12 [compound 460] |
| 19550 | 100.00 | 100000 |  |  |  |  | Cc1c(C2(C(=O)N[C@H](C)c3cc(C#N)ccn3)CC2)c(=O)[nH]c2ccc(F)cc12 (single isomer, unassigned) [compound 2577] |
| 60 | 0.01 | 70 |  |  |  |  | Cc1c(CC(=O)N[C@@H](C)c2ccc(C#N)cc2F)c(=O)[nH]c2ccc(F)c(C#N)c12 [compound 68] |
| 100000 |  | 100000 |  |  |  | Skeletal EC25 ([2]; ‡ Y125 value, not a Y75 value (125% activity relative to no compound), rabbit psoas myofibrils): 61.98‡ μM | C[C@H](NC(=O)C(F)(F)c1cc2cc(F)ccc2[nH]c1=O)c1nccc(C#N)n1 (single isomer, unassigned) [compound 2560] |
|  |  |  | 100000 | 100.00 | 100000 |  | Cc1c(CC(=O)N[C@@H](C)c2ccc(S(C)(=O)=O)cc2F)c(=O)[nH]c2ccnc(C#N)c12 (single isomer, unassigned) [compound 215] |
|  |  |  | 800 | 4.03 | 1480 |  | Cc1ccc2[nH]c(=O)c(CC(=O)N[C@H](C)c3ncc(C#N)cc3F)c(C)c2n1 [compound 468] |
| 70 | 0.04 | 520 |  |  |  |  | Cc1c(CC(=O)N[C@@H](C)c2cnc(C#N)nc2)c(=O)[nH]c2cc(F)c(F)cc12 (single isomer, unassigned) [compound 2075] |
| 120 | 0.03 | 280 |  |  |  |  | Cc1c(CC(=O)N[C@@H](C)c2ncc(C#N)cc2F)c(=O)[nH]c2cccc(C#N)c12 [compound 1081] |
|  |  |  | 100000 | 23.30 | 100000 |  | Cc1c(CC(=O)N[C@H](C)c2ccc(S(C)(=O)=O)cc2F)c(=O)[nH]c2ccnc(C#N)c12 (single isomer, unassigned) [compound 214] |
| 430 | 0.34 | 1620 |  |  |  |  | Cc1c(C(F)(F)C(=O)N[C@H](C)c2ncc(C#N)cn2)c(=O)[nH]c2ccc(F)c(C(F)(F)F)c12 (single isomer, unassigned) [Compound 2513] |
|  |  |  | 88120 | 100.00 | 100000 |  | Cc1nccc2[nH]c(=O)c(CC(=O)N[C@@H](C)c3ccc(O)nc3)c(C)c12 (single isomer, unassigned) [compound 296] |
|  |  |  | 330 | 0.21 | 3120 |  | Cc1c(CC(=O)N[C@@H](C)c2ccc(C#N)cn2)c(=O)[nH]c2ccnc(C(F)(F)F)c12 [compound 156] |
|  |  |  |  |  |  | Atrial EC25 ([1]; Y75 value: concentration required to reduce myosin ATP-ase activity by 25%, Porcine Atria Prep pCa 25 GEOM_MEAN): 2240 nM; Skeletal EC25 ([2]; Y75 value: concentration required to reduce myosin ATP-ase activity by 25%, Rabbit Psoas Prep pCa 25 GEOM_MEAN): 4.42 µM; Ventricular EC25 ([3]; Y75 value: concentration required to reduce myosin ATP-ase activity by 25%, Porcine Ventricle Prep pCa 25 GEOM_MEAN): 2080 nM | C[C@H](NC(=O)Cc1cc2c(F)c(F)ccc2[nH]c1=O)c1nc(C#N)cs1 (single isomer, unassigned) [compound 4008] |
|  |  |  | 80 | 0.02 | 270 |  | Cc1nccc2[nH]c(=O)c(CC(=O)N[C@@H]3COc4cc(F)cc(F)c43)c(C)c12 (single isomer, unassigned) [compound 288] |
| 2190 | 5.70 | 38210 |  |  |  |  | C[C@@H](NC(=O)Cc1cc2cc(F)c(F)cc2[nH]c1=O)c1ncc(C#N)cn1 (single isomer, unassigned) [compound 2035] |
| 2470 | 0.12 | 3980 |  |  |  |  | C[C@H](NC(=O)Cc1c(C2CC2)c2cc(F)ccc2[nH]c1=O)c1ccc(C#N)cn1 [compound 56] |
| 4100 | 19.51 | 100000 |  |  |  |  | C[C@@H](NC(=O)C1(c2cc3cc(F)ccc3[nH]c2=O)CC1)c1nccc(C#N)n1 (single isomer, unassigned) [compound 2507] |
|  |  |  | 860 | 0.17 | 3010 |  | Cc1nccc2[nH]c(=O)c(CC(=O)N[C@@H](CO)c3ncc(C#N)cc3F)c(C)c12 (single isomer, unassigned) [compound 248] |
| 210 | 0.50 | 100000 |  |  |  |  | C[C@@H](NC(=O)Cc1c(C2CC2)c2cc(F)ccc2[nH]c1=O)c1ncc(C#N)cn1 (single isomer, unassigned) [compound 2063] |
|  |  |  | 100000 | 100.00 | 100000 |  | Cc1nccc2[nH]c(=O)c(CC(=O)N[C@H](CO)c3cccnc3)c(C)c12 (single isomer, unassigned) [compound 311] |
|  |  |  | 130 | 0.02 | 110 |  | Cc1c(CC(=O)N[C@@H](C)c2ccc(C#N)cc2F)c(=O)[nH]c2ccnc(C(F)(F)F)c12 [compound 162] |
|  |  |  | 10740 | 1.83 | 51730 |  | Cc1c(CC(=O)N[C@@H](C)c2ccc(F)cc2F)c(=O)[nH]c2ccnc(N3CCOCC3)c12 [compound 345] |
|  |  |  | 94540 | 1.31 | 100000 |  | COc1nccc2[nH]c(=O)c([C@@H](C)C(=O)N[C@@H](C)c3ccc(F)cc3F)c(C(F)(F)F)c12 (single isomer, unassigned) [compound 425] |
|  |  |  | 1440 | 0.30 | 6630 |  | C[C@H](NC(=O)Cc1cc2c(C#N)nccc2[nH]c1=O)c1ccc(C#N)cn1 [compound 473] |
| 100000 | 100.00 | 100000 |  |  |  |  | C[C@H](NC(=O)Cc1cc2cc(F)c(F)cc2[nH]c1=O)c1ncc(C#N)cn1 (single isomer, unassigned) [compound 2036] |
